Data taken from ChEMBL document CHEMBL1201862, “PubChem BioAssay data set” (2004).
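Exposure lasted 48 hours, with cells grown in 96-well plates and compounds tested at five concentrations. GI50 marks 50% less growth.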 The source made the active and inactive calls. Rule as the data show it: active = GI50 up to about 1.1 µM and inactive = higher.

Experiments:
Test in all cases: NCI tumour cell line growth inhibition, 48 h
NCI/ADR-RES = tested on: NCI/ADR-RES
LOX IMVI = tested on: LOX IMVI
NCI-H460 = tested on: NCI-H460
HOP-92 = tested on: HOP-92
MDA-MB-435 = tested on: MDA-MB-435
Malme-3M = tested on: Malme-3M
OVCAR-8 = tested on: OVCAR-8
SW-620 = tested on: SW-620
UO-31 = tested on: UO-31
CCRF-CEM = tested on: CCRF-CEM
SK-MEL-5 = tested on: SK-MEL-5
K562 = tested on: K562
DU-145 = tested on: DU-145
SN12C = tested on: SN12C
SF-295 = tested on: SF-295
IGROV-1 = tested on: IGROV-1
CAKI-1 = tested on: CAKI-1
MCF7 = tested on: MCF7
NCI-H226 = tested on: NCI-H226
SK-MEL-2 = tested on: SK-MEL-2

Row | Compound | GI50 (NCI/ADR-RES) | GI50 (LOX IMVI) | GI50 (NCI-H460) | GI50 (HOP-92) | GI50 (MDA-MB-435) | GI50 (Malme-3M) | GI50 (OVCAR-8) | GI50 (SW-620) | GI50 (UO-31) | GI50 (CCRF-CEM) | GI50 (SK-MEL-5) | GI50 (K562) | GI50 (DU-145) | GI50 (SN12C) | GI50 (SF-295) | GI50 (IGROV-1) | GI50 (CAKI-1) | GI50 (MCF7) | GI50 (NCI-H226) | GI50 (SK-MEL-2)
1 | O=[N+]([O-])c1ccc2c(c1)Sc1ccccc1N2CCCCCl | > 100 µM (inactive) | > 100 µM (inactive) | > 100 µM (inactive) | 24.9 µM (inactive) | > 100 µM (inactive) | > 10 µM (inactive) | > 100 µM (inactive) | > 100 µM (inactive) | > 100 µM (inactive) | > 100 µM (inactive) | > 100 µM (inactive) | 70.6 µM (inactive) | > 100 µM (inactive) | > 100 µM (inactive) | > 100 µM (inactive) | > 100 µM (inactive) | > 100 µM (inactive) | > 100 µM (inactive) | > 100 µM (inactive) | 
2 | O=C1/C(=C/c2ccco2)N=C(c2ccccc2)N1c1cc2cc(Sc3ccccc3)ccc2[nH]1 | 10.2 µM (inactive) | 12.3 µM (inactive) |  | 8.24 µM (inactive) | 6.55 µM (inactive) | > 25 µM (inactive) | 22.8 µM (inactive) | 13.1 µM (inactive) | 18.8 µM (inactive) | 2.72 µM (inactive) |  | 7.96 µM (inactive) | > 25 µM (inactive) | 17.4 µM (inactive) |  | > 25 µM (inactive) | 9.46 µM (inactive) | 11 µM (inactive) |  | 7.53 µM (inactive)
3 | CC1=C(C(=O)NC(C)(C)C)CC(C(=O)NC(C)(C)C)C(C)N1 (stereo unspecified) | > 100 µM (inactive) | > 100 µM (inactive) | > 100 µM (inactive) | 71.1 µM (inactive) | 93.8 µM (inactive) |  | > 100 µM (inactive) | > 100 µM (inactive) | > 100 µM (inactive) | 61 µM (inactive) | > 100 µM (inactive) | > 100 µM (inactive) | > 100 µM (inactive) | > 100 µM (inactive) | > 100 µM (inactive) | > 100 µM (inactive) | > 100 µM (inactive) | > 100 µM (inactive) | > 100 µM (inactive) | > 100 µM (inactive)
4 | Clc1ccc(NCc2nnc(CCCCCCCCc3nnc(CNc4ccc(Cl)cc4)o3)o2)cc1 | > 100 µM (inactive) | > 100 µM (inactive) | > 100 µM (inactive) | > 100 µM (inactive) | > 100 µM (inactive) | > 100 µM (inactive) | > 100 µM (inactive) |  | > 100 µM (inactive) | > 100 µM (inactive) | > 100 µM (inactive) | > 100 µM (inactive) | > 100 µM (inactive) | > 100 µM (inactive) | > 100 µM (inactive) |  | > 100 µM (inactive) | > 100 µM (inactive) |  | > 100 µM (inactive)
5 | O=c1nc2n(cc1/C=C\Br)C1CC(O)C(CO2)O1 (stereo unspecified) | > 100 µM (inactive) | > 100 µM (inactive) | > 100 µM (inactive) |  | > 100 µM (inactive) | > 100 µM (inactive) | > 100 µM (inactive) | > 100 µM (inactive) | > 100 µM (inactive) | 36.7 µM (inactive) | > 100 µM (inactive) | 5.16 µM (inactive) | > 100 µM (inactive) | > 100 µM (inactive) | > 100 µM (inactive) | > 100 µM (inactive) | > 100 µM (inactive) | > 100 µM (inactive) | > 100 µM (inactive) | 
6 | COc1c2c(c3c(c1CCC(=O)O)OC(C)(C)C=C3)OC(C)(C)C=C2 | > 100 µM (inactive) | > 100 µM (inactive) |  |  | 28.9 µM (inactive) | > 100 µM (inactive) | > 100 µM (inactive) | > 100 µM (inactive) | > 100 µM (inactive) |  | 65.2 µM (inactive) | 55.8 µM (inactive) | > 100 µM (inactive) | > 100 µM (inactive) | > 100 µM (inactive) | > 100 µM (inactive) | > 100 µM (inactive) | > 100 µM (inactive) | 83.4 µM (inactive) | > 100 µM (inactive)
7 | CCCCCC(=O)n1[nH]c(=O)n(-c2ccc(OC)cc2)c1=O | > 100 µM (inactive) | > 100 µM (inactive) | > 100 µM (inactive) |  | > 100 µM (inactive) | 63.1 µM (inactive) | > 100 µM (inactive) | > 100 µM (inactive) | > 100 µM (inactive) | > 100 µM (inactive) | > 100 µM (inactive) | > 100 µM (inactive) | > 100 µM (inactive) | > 100 µM (inactive) | > 100 µM (inactive) | > 100 µM (inactive) | > 100 µM (inactive) | > 100 µM (inactive) | > 100 µM (inactive) | > 100 µM (inactive)
8 | CSc1ncc2c(n1)-c1ccccc1OC2N1CCCC1 (stereo unspecified) | 93.8 µM (inactive) | > 100 µM (inactive) | > 100 µM (inactive) | > 100 µM (inactive) | > 100 µM (inactive) |  | > 100 µM (inactive) | 94.8 µM (inactive) | 42.4 µM (inactive) | 58.5 µM (inactive) | > 100 µM (inactive) | 60.1 µM (inactive) | > 100 µM (inactive) | 71 µM (inactive) | > 100 µM (inactive) | 47.8 µM (inactive) | 31 µM (inactive) | 71.3 µM (inactive) | 31 µM (inactive) | > 100 µM (inactive)
9 | O=C(N/N=C/c1ccc(Cl)cc1)c1cc(I)cc(I)c1O | > 100 µM (inactive) | > 100 µM (inactive) |  | 92.3 µM (inactive) | > 100 µM (inactive) |  | > 100 µM (inactive) | > 100 µM (inactive) | > 100 µM (inactive) | > 100 µM (inactive) | > 100 µM (inactive) | > 100 µM (inactive) | > 100 µM (inactive) | > 100 µM (inactive) | > 100 µM (inactive) | > 100 µM (inactive) | > 100 µM (inactive) | > 100 µM (inactive) | > 100 µM (inactive) | > 100 µM (inactive)
10 | CC1=CC(C2/C(=N/O)C=C(C)CC2(C)C)C(O)C(C)(C)C1 (stereo unspecified) | 16.3 µM (inactive) | 16.8 µM (inactive) | 21.3 µM (inactive) | 14.1 µM (inactive) | 16.4 µM (inactive) |  | 17.5 µM (inactive) | 15.7 µM (inactive) | 15.6 µM (inactive) | 22.8 µM (inactive) | 15.1 µM (inactive) | 14.2 µM (inactive) | 15 µM (inactive) | 18.4 µM (inactive) | 18.6 µM (inactive) | 17.3 µM (inactive) | 15 µM (inactive) | 15.3 µM (inactive) | 15.8 µM (inactive) | 16 µM (inactive)
11 | O=C(O)CSC1=NC(=O)C2(NN1)c1ccccc1-c1ccccc12 | > 10 µM (inactive) | > 10 µM (inactive) | > 10 µM (inactive) | > 10 µM (inactive) | > 10 µM (inactive) | > 10 µM (inactive) | > 10 µM (inactive) | > 10 µM (inactive) | > 10 µM (inactive) | > 10 µM (inactive) | > 10 µM (inactive) | > 10 µM (inactive) | > 10 µM (inactive) | > 10 µM (inactive) | > 10 µM (inactive) | > 10 µM (inactive) | > 10 µM (inactive) | > 10 µM (inactive) | > 10 µM (inactive) | 
12 | C=C[C@H]1CN2CCc3c([nH]c4c([C@H]5CCCN5C)c(O)ccc34)[C@@H]2C[C@@H]1C[C@H]1c2[nH]c3ccccc3c2CCN1C [STRYCHNOPENTAMINE] | 1.74 µM (inactive) | 1.15 µM (inactive) | 1.48 µM (inactive) | 1.58 µM (inactive) | 1.43 µM (inactive) | 1.76 µM (inactive) | 1.23 µM (inactive) | 1.24 µM (inactive) | 1.71 µM (inactive) | 0.719 µM (active) |  | 0.422 µM (active) | 1.63 µM (inactive) | 1.65 µM (inactive) | 1.73 µM (inactive) | 1.59 µM (inactive) | 1.72 µM (inactive) | 0.776 µM (active) |  | 1.9 µM (inactive)
13 | COc1ccc(NC(=S)Nc2cc(C)ccn2)cc1 | 28.6 µM (inactive) | > 100 µM (inactive) | > 100 µM (inactive) | > 100 µM (inactive) | > 100 µM (inactive) |  | > 100 µM (inactive) | > 100 µM (inactive) | > 100 µM (inactive) | > 100 µM (inactive) | > 100 µM (inactive) | > 100 µM (inactive) | > 100 µM (inactive) |  |  | > 100 µM (inactive) | > 100 µM (inactive) | > 100 µM (inactive) | > 100 µM (inactive) | > 100 µM (inactive)
14 | Nc1ccccc1CCN1CCN(CCCc2ccccc2)CC1 | 90.4 µM (inactive) | 34.4 µM (inactive) | 41.1 µM (inactive) |  | 72.4 µM (inactive) | 14.1 µM (inactive) | 49.5 µM (inactive) | 95.3 µM (inactive) | 27.3 µM (inactive) | 46.1 µM (inactive) | 17.9 µM (inactive) | 27.8 µM (inactive) | > 100 µM (inactive) | 87.7 µM (inactive) | 45.4 µM (inactive) | 50.6 µM (inactive) | 57.3 µM (inactive) | 46.8 µM (inactive) | 44.5 µM (inactive) | > 100 µM (inactive)
15 | CCOC(=O)c1c(SC(=O)c2ccc(Cl)cc2)n(-c2ccccc2)c(=S)n(-c2ccccc2)c1=O | > 100 µM (inactive) | > 100 µM (inactive) | > 100 µM (inactive) | > 100 µM (inactive) | > 100 µM (inactive) | > 100 µM (inactive) | > 100 µM (inactive) | > 100 µM (inactive) |  | > 100 µM (inactive) |  | > 100 µM (inactive) | > 100 µM (inactive) | > 100 µM (inactive) | > 100 µM (inactive) | > 100 µM (inactive) | > 100 µM (inactive) | > 100 µM (inactive) | > 100 µM (inactive) | 
